Where two headings read alike, the source gives them in different places.
Legend:
[1] = system: Pb CS His6-242-310 antigen; test: Murine immunization with Pb CS His6-242-310 peptide: specific antibody titer (ELISA); type: in vivo, BALB/c mice; settings: 0.05 mg adjuvant + 0.02 mg antigen s.c.; for serological response following three shots: ELISA 2 weeks after third shot, FIG. 15; for anti-Pb CS His6-242-310 antibody titer after one single shot: ELISA 3 weeks after first shot, FIG. 13; for serological response after two shots: ELISA 4 weeks after second shot, FIG. 14
Description: Antigen: Pb CS([…] Chem., 8: (1979) 350–341).
Serum sampling: Blood sampling is conducted at weeks 0, 3, 7 and 9. Blood is allowed to stand for 6 min. at 37° C., then is kept overnight at 4° C. Serum is subsequently frozen at −80° C. until time of antibody assay.
Assay of antibodies specifically raised against Pb Cs His6 242-310 antigen is performed by ELISA. Binding of antigen is done in 96-well microtiter plates (Maxisorp F96, Nunc, DK) by conducting overnight incubation in a moist chamber at 4° C. with each well containing 0.1 ml of PBS (phosphate buffered saline) containing 0.001 mg/ml of Pb CS His6242-310 antigen. Blocking of the microtiter plate is performed with PBS containing 1% of bovine serum albumin (BSA, Fluka, Switzerland). Plates are washed with PBS containing 0.05% Tween 20 (Sigma, St. Louis, Mo., USA). Serum samples collected at 0, 3, 7 and 9 weeks are serially diluted with dilution buffer (PBS containing 2.5% of skimmed milk powder and 0.05% of Tween 20), then transferred into a microtiter plate and allowed to stand for 1 hr. at room temperature (RT). Plates are then washed with PBS, a diluted solution containing mouse polyclonal anti-immunoglobulin coupled to alkaline phosphatase (Sigma, St. Louis, Mo., USA) is then dispensed into those plates and incubated for 1 hr. at RT. […] Absorbance at 405 nm is read with a microtiter plate reader (Dynatech 25000 ELISA reader, Ashford, Middlesex, UK), each serum sample is measured in duplicate. Results stand for the mean of all measurements relating to mice in each group.

murine macrophage cells = test: Nitric oxide production in supernatants of macrophage cultures (Griess); type: cell-based, C57/BL6 mice; settings: 22 hours incubation, Griess reagent; FIG. 2
Description: Two six-week old male C57/BL6 mice were killed by CO2 inhalation followed by cervical dislocation. The mice were washed with alcohol, and the skin of the posterior members was entirely removed. The hip, the femur and the tibia bones were removed by joint disruption. The flesh was grossly removed using a scalpel. The bones were cleaned and the bone ends were cut with scissors. The marrrow was aspirated by injecting three times 1 ml of Dulbecco's Modified Eagle Medium (DH medium) in the bone lumen. The cells were resuspended in DH medium and centrifuged at 300×g for 5 minutes. The supernatant fluid was discarded and the cells were resuspended at a density of 40 000 cells/ml in DH medium supplemented with 20% horse serum (HS) and 30% L929 culture supernatant. L929 is a murine fibroblast cell line the supernatant fluid of which is rich in growth factor for macrophage (M-CSF). […]
After 22 hours, the microtiter plates were centrifuged, 5 minutes at 400×g and 100 μl of supernatant fluid were withdrawn and transferred into a microtiter plate. […] The microtiter plates were read with a spectrophotometer at 562 nm wavelength against a reference at 690 nm. […]
The results are expressed as mean±standard deviation after deduction of the negative control value and plotted as a dose versus response curve.

LmCPb antigen = type: in vivo, CBA mice; settings: for extent of proliferation, times higher than cultures from mice administered antigen alone (without adjuvant): in presence of LmCPb (15 μg/ml)
[2] = system: limulus amoebocyte lysate (LAL); test: Chromogenic Limulus Amoebocyte Lysate (LAL) endotoxicity test; type: biochemical; settings: for LAL activity in EU/mg: mean ± standard deviation
Description: Endotoxicity was determined by a chromogenic Limuls Amoebocyte Lysate test (Chromogenic LAL of Charles River Endosafe, batch # EK412E, Charleston, USA). This test is based on activation by a lipopolysaccharide (LPS) or structurally analogous products, of an enzymatic cascade present in LAL.
The enzymatic reaction is conducted at 37° C. and the time-course chromogen formation is measured at 405 nm. In the final stage of this time-course determination assay, the time required to achieve an OD of 0.2 unit is recorded and the endotoxic activity is calculated based on an LPS standard (standard curve).
Results are expressed in EU (Endotoxin Unit) in relation to a standardized preparation of E. coli lipolysaccharides. For this series of assays, 1 EU corresponds to […] of LPS equivalent.
It is mandatory to compare the quantitative assay of the pyrogen content with a given well standardized single series of experiments.

[3] = 2 injections LmCPb 3–5 μg with 2×50 μg OM adjuvant or 200 μg BCG, in vitro: No stimulant
[4] = 2 injections LmCPb with adjuvant, in vitro: Amastigotes 2 × 10^−6/ml
[5] = 2 injections LmCPb with adjuvant, in vitro: Amastigotes 6 × 10^−6/ml
[6] = 2 injections LmCPb with adjuvant, in vitro: Amastigotes 17 × 10^−6/ml
[7] = 2 injections LmCPb with adjuvant, in vitro: Con A 5 μg/ml
[8] = 2 injections LmCPb with adjuvant, in vitro: LmCPb 0.6 μg/ml
[9] = 2 injections LmCPb with adjuvant, in vitro: LmCPb 1.7 μg/ml
[10] = 2 injections LmCPb with adjuvant, in vitro: LmCPb 5 μg/ml
[11] = 2 injections LmCPb with adjuvant, in vitro: LmCPb 15 μg/ml

Structure (SMILES)	serological response following three shots [1]	anti-Pb CS His6-242-310 antibody titer after one single shot [1]	serological response after two shots [1]	production of nitric oxide by murine macrophage cells (murine macrophage cells)	3H-TdR take-up (LmCPb antigen; [3]) [cpm × 10^−3/ml]	3H-TdR take-up (LmCPb antigen; [4]) [cpm × 10^−3/ml]	3H-TdR take-up (LmCPb antigen; [5]) [cpm × 10^−3/ml]	3H-TdR take-up (LmCPb antigen; [6]) [cpm × 10^−3/ml]	3H-TdR take-up (LmCPb antigen; [7]) [cpm × 10^−3/ml]	3H-TdR take-up (LmCPb antigen; [8]) [cpm × 10^−3/ml]	3H-TdR take-up (LmCPb antigen; [9]) [cpm × 10^−3/ml]	3H-TdR take-up (LmCPb antigen; [10]) [cpm × 10^−3/ml]	3H-TdR take-up (LmCPb antigen; [11]) [cpm × 10^−3/ml]	extent of proliferation, times higher than cultures from mice administered antigen alone (without adjuvant) (LmCPb antigen) [times]	LAL activity in LPS equivalents [2] [ng eq. LPS/mg]	LAL activity in EU/mg [2] [EU/mg]
CCCCCCCCCCCC(=O)O[C@H](CCCCCCCCCCC)CC(=O)NC(CCOP(=O)(O)O)C(=O)NCCCC(COP(=O)(O)O)NC(=O)C[C@H](O)CCCCCCCCCCC (stereo partly drawn) [OM-294-DP, 3-[(R)-3-dodecanoyloxytetradecanoylamino]-4-oxo-5-aza-9-[(R)-3-hydroxytetradecanoylamino]decan-1,10-diol 1, 10-bis(dihydrogenphosphate)]	greater than that of IFA	almost as high as the response observed with Incomplete Freund's Adjuvant (IFA)	greater than that of IFA	to a much greater extent than E. coli LPS	21.8 ± 2.2	61.0 ± 1.7	81.5 ± 5.5	78.2 ± 7.8	135.9 ± 3.7	40.9 ± 12.7	57.2 ± 10.9	70.2 ± 9.2	100.0 ± 6.5	28	6.2	56 ± 48
CCCCCCCCCCCC(=O)O[C@H](CCCCCCCCCCC)CC(=O)NC(CCOP(=O)(O)O)C(=O)NCCCC(CO)NC(=O)C[C@H](O)CCCCCCCCCCC (stereo partly drawn) [OM-294-MP, 3-[(R)-3-dodecanoyloxytetradecanoylamino]-4-oxo-5-aza-9-[(R)-3-hydroxytetradecanoylamino]-decane-1,10-diol 1-dihydrogenphosphate]	greater than that of IFA	almost as high as the response observed with Incomplete Freund's Adjuvant (IFA)	greater than that of IFA	weaker response	17.1 ± 2.5	28.4 ± 8.3	66.1 ± 4.5	68.7 ± 2.3	151.4 ± 3.7	22.9 ± 2.8	34.1 ± 4.1	70.3 ± 6.4	124.2 ± 12.0	23	1.4	13 ± 2
